Data from patent US6166290A, “Glutathione-S-conjugate transport in plants” (The Trustees of the University of Pennsylvania, priority 1997, dated 2000).

Legend:
[1] = biological target: T1, YCF1 (vacuolar membrane vesicles purified from DTY165 cells) (Saccharomyces cerevisiae, UniProt P39109); assay: [3H]DNP-GS uptake by vacuolar membrane vesicles purified from DTY165 cells; type: biochemical; details: for DNP-GS uptake plus the compound indicated: 66.2 μM DNP-GS, 3 mM MgATP (omitted with MgAMP-PNP), MgAMP-PNP 3 mM, bafilomycin A1 0.5 μM, FCCP 5 μM, gramicidin D 5 μM, NH4Cl 1 mM; for DNP-GS uptake as percentage of control plus the compound indicated: as Table 1 concentrations, 10 min
T1 construct: endogenous in cells; host or cells: S. cerevisiae DTY165 (wild type YCF1), vacuolar membrane vesicles
T1 sequence (P39109 whole entry): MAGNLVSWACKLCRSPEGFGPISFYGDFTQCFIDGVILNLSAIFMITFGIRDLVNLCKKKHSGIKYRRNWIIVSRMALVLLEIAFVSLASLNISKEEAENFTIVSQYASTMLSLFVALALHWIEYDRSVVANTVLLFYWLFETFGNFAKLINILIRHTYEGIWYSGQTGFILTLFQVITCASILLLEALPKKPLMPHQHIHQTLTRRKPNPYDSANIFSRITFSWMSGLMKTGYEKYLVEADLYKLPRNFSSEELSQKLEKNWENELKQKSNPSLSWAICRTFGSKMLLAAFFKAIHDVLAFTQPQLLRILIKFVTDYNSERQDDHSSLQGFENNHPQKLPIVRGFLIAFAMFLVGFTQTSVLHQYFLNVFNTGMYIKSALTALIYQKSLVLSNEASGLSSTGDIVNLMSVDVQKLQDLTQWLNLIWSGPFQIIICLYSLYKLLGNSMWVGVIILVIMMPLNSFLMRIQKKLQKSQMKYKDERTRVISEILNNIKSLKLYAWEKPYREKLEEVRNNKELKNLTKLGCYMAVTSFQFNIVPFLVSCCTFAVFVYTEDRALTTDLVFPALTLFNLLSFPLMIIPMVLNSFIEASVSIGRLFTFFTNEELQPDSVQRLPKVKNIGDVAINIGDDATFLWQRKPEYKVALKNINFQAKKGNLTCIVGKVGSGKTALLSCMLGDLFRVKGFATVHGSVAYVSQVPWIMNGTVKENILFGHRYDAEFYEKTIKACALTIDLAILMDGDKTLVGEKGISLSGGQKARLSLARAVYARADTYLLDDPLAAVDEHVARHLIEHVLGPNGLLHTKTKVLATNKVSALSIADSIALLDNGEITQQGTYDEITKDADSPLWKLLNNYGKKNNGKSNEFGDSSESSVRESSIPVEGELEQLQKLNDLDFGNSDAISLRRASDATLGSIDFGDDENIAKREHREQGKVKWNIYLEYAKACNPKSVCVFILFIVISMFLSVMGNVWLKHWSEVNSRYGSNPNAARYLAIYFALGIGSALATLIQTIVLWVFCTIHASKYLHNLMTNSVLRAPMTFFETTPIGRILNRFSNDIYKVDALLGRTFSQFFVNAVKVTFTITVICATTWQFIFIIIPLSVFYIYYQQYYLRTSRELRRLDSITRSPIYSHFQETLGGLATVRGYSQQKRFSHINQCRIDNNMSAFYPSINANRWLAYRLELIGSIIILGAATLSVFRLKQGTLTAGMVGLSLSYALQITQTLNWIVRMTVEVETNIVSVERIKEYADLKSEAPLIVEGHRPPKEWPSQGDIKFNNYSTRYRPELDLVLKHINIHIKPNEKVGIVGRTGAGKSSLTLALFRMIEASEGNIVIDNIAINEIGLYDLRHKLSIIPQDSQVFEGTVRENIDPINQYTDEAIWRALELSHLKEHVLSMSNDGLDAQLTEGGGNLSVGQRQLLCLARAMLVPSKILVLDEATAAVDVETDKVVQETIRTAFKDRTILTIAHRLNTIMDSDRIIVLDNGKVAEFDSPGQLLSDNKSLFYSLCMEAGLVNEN
Method: (§1) For the routine preparation of vacuolar membrane vesicles, 15 ml of stationary phase cultures of DTY165 or DTY167 were diluted into 1-liter volumes of fresh YPD medium, grown for 24 hours at 30° C. to an OD600 nm of approximately 0.8 and collected by centrifugation. After washing with distilled water, the cells were converted to spheroplasts with Zymolyase 20T (ICN) (Kim et al., 1994, supra) and intact vacuoles were isolated by flotation centrifugation of spheroplast lysates on Ficoll 400 step gradients as described by Roberts et al. (1991, Methods. Enzymol. 194:644-661). Both the spheroplast lysis buffer and Ficoll gradients contained 2 mg/ml bovine serum albumin, 1 μg/ml aprotinin, 1 μg/ml leupeptin, 1 μg/ml pepstatin, and 1 mM PMSF to minimize proteolysis. The resulting vacuole fraction was vesiculated in 5 mM MgCl2, 25 mM KCl, 10 mM Tris-Mes (pH 6.9) containing 2 mg/ml bovine serum albumin, 1 μg/ml aprotinin, 1 μg/ml leupeptin, 1 μg/ml pepstatin, and 1 mM PMSF, pelleted by centrifugation at 37,000× g for 25 min, and resuspended in suspension medium (1.1 M glycerol, 2 mM dithiothreitol, 1 mM Tris-EGTA, 2 mg/ml bovine serum albumin, 1 μg/ml aprotinin, 1 μg/ml leupeptin, 1 μg/ml pepstatin, 1 mM PMSF, 5 mM Tris-Mes, pH 7.6) (Kim et al., 1995, J. Biol. Chem. 270:2630-2635).
(§2) Unless otherwise indicated, [^3 H]DNP-GS uptake was measured at 25° C. in 200 μl reaction volumes containing 3 mM ATP, 3 mM MgSO4, 5 μM gramicidin-D, 10 mM creatine phosphate, 16 units/ml creatine kinase, 50 mM KC 1, 1 mg/ml bovine serum albumin, 400 mM sorbitol, 25 mM Tris-Mes (pH 8.0), and 66.2 μM [^3 H]DNP-GS (8.7 mCi/mmol) (Li et al., 1995, supra). […] Uptake was initiated by the addition of vacuolar membrane vesicles (10-15 μg of membrane protein), brief mixing of the samples on a vortex mixer and uptake was then allowed to proceed for 1-60 minutes. Uptake was terminated by the addition of 1 ml of ice-cold wash medium (400 mM sorbitol, 3 mM Tris-Mes, pH 8.0) and vacuum filtration of the suspension through prewetted Millipore HA cellulose nitrate membrane filters (pore diameter, 0.45 μm). The filters were rinsed twice with 1 ml of ice-cold wash medium and air-dried, and radioactivity was determined by liquid scintillation counting in BCS mixture (Amersham Corp.). Nonenergized [^3 H]DNP-GS uptake and extravesicular solution trapped on the filters were enumerated by the same procedure except that ATP and Mg^2 +were omitted from the uptake medium.

[2] = tested on: vacuolar membrane vesicles purified from DTY167 cells (ycf1Δ mutant); type: biochemical, Saccharomyces cerevisiae; details: for DNP-GS uptake plus the compound indicated: 66.2 μM DNP-GS, 3 mM MgATP (omitted with MgAMP-PNP), MgAMP-PNP 3 mM, bafilomycin A1 0.5 μM, FCCP 5 μM, gramicidin D 5 μM, NH4Cl 1 mM; for DNP-GS uptake as percentage of control plus the compound indicated: as Table 1 concentrations, 10 min
Method: as §1, §2

[3] = biological target: T1, YCF1 (vacuolar membrane vesicles purified from DTY165 cells); assay: biochemical; type: biochemical; details: for 109Cd.GS2 uptake plus addition: 50 μM 109Cd.GS2, bafilomycin A1 0.5 μM, FCCP 5 μM, gramicidin-D 5 μM, NH4Cl 1 mM; for 109Cd.GS2 uptake as percentage of control: as Table 7 concentrations, 10 min; for decrease of MgATP-dependent Cd.GS2 uptake: text to Table 7
Method: (§3) In experiments involving cadmium transport, dithiothreitol and EGTA were removed from the suspension medium to prevent the attenuation of YCF1-dependent Cd^2+ transport otherwise exerted by these compounds. Vesiculated vacuolar membranes were subjected to three cycles of 50-fold dilution into simplified suspension medium (1.1 M glycerol, 5 mM Tris-Mes, pH 8.0), centrifugation at 100,000× g for 35 minutes and resuspension in the same medium before use.
(§4) Singly radiolabeled ^109 Cd.GSn and doubly radio-labeled ^109 Cd[^3 H].GS^n complexes were prepared by sequential gel-filtrationand anion-exchange chromatography of the reaction products generated by incubating 20 mM ^109 CdSO4 (78.4 mCi/mmol) with 40 mM GSH or 40 mM [^3 H]GSH (240 mCi/mmol) in 15 ml 10 mM phosphate buffer (pH 8.0) containing 150 mM KNO3 at 45° C. for 24 hours. For gel-filtration, 2 ml aliquots of the reaction mixture were applied to a column (40×1.5 cm ID) packed with water-equilibrated Sephadex G-1 5, eluted with deionized water and ^109 Cd and/or ^3 H in the fractions was measured by liquid scintillation counting. The fractions encompassed by each of the two ^109 Cd.GSn peaks identified were pooled, lyophilized and redissolved in 4 ml of loading buffer (5 mM Tris-Mes, pH 8.0). For anion-exchange chromatography, 0.5 ml aliquots of the resuspended lyophilizates from gel-filtration chromatography were applied to a Mono-Q HR5/5 column (Pharmacia) equilibrated with the same buffer. Elution was with a linear gradient of NaCl (0.5 ml/minute; 0-500 mM) dissolved in loading buffer. The individual fractions corresponding to the major peaks of ^109 Cd obtained from the Mono-Q column (one each for the peaks resolved by gel-filtration chromatography) were pooled, lyophilized and resuspended in 4 ml deionized water after liquid scintillation counting.
(§5) MgATP-energized, uncoupler-insensitive ^109 Cd^2+ uptake by vacuolar membrane vesicles was measured at 25° C. in 200 μl reaction volumes containing 3 mM ATP, 3 mM MgSO4, 5 μM gramicidin-D, 10 mM creatine phosphate, 16 units/ml creatine kinase, 50 mM KCl, 400 mM sorbitol, 25 mM Tris-Mes (pH 8.0) and the indicated concentrations of ^109 CdSO4, GSH or ^109 Cd- and/or ^3 H-labeled purified Cd.GSn complexes as described herein except that the wash media contained 100 μM CdSO4 in addition to sorbitol (400 mM) and Tris-Mes (3 mM, pH 8.0).

[4] = tested on: vacuolar membrane vesicles purified from DTY167 cells (ycf1Δ mutant); type: biochemical, Saccharomyces cerevisiae; details: for 109Cd.GS2 uptake plus addition: 50 μM 109Cd.GS2, bafilomycin A1 0.5 μM, FCCP 5 μM, gramicidin-D 5 μM, NH4Cl 1 mM; for 109Cd.GS2 uptake as percentage of control: as Table 7 concentrations, 10 min
Method: as §3, §4, §5

[5] = tested on: vacuolar GS-X pump (vacuolar membrane vesicles, V. radiata hypocotyls); assay: GS-conjugate uptake by vacuolar membrane vesicles from etiolated hypocotyls of V. radiata; type: biochemical, Vigna radiata
Method: Values shown are means ±SE (n=3).
Vacuolar membrane vesicles were purified from etiolated hypocotyls of V. radiata cv.
Unless otherwise indicated, [^3 H]medicarpin or [3H]medicarpin-GS uptake was measured at 25° C. in 200 μl reaction volumes containing 3 mM ATP, 3 mM MgSO4, 10 mM creatine phosphate, 16 U/ml creatine kinase, 50 mM KCl, 0.1% (w/v) BSA, 400 mM sorbitol and 25 mM Tris-Mes buffer, pH 8.0. Uptake was initiated by the addition of 12 μl membrane vesicles (30-40 μg protein) and brief mixing of the samples on a vortex mixer. Uptake was terminated by the addition of 1 ml ice-cold wash medium (400 mM sorbitol, 3 mM Tris-Mes, pH 8.0) and vacuum filtration of the suspension through prewetted HA cellulose nitrate filters (pore diameter 0.45 μm). The filters were rinsed twice with a 1 ml ice-cold wash medium, air-dried and radioactivity was determined by liquid scintillation counting.

AtMRP1 = biological target: T2, AtMRP1 (Arabidopsis thaliana, UniProt Q9C8G9); assay: AtMRP1-dependent uptake by membrane vesicles from pYES3-AtMRP1-transformed DTY168 cells; type: biochemical
T2 construct: S. cerevisiae DTY168 (ycf1 null) vacuolar-enriched membrane vesicles
T2 sequence (Q9C8G9 whole entry): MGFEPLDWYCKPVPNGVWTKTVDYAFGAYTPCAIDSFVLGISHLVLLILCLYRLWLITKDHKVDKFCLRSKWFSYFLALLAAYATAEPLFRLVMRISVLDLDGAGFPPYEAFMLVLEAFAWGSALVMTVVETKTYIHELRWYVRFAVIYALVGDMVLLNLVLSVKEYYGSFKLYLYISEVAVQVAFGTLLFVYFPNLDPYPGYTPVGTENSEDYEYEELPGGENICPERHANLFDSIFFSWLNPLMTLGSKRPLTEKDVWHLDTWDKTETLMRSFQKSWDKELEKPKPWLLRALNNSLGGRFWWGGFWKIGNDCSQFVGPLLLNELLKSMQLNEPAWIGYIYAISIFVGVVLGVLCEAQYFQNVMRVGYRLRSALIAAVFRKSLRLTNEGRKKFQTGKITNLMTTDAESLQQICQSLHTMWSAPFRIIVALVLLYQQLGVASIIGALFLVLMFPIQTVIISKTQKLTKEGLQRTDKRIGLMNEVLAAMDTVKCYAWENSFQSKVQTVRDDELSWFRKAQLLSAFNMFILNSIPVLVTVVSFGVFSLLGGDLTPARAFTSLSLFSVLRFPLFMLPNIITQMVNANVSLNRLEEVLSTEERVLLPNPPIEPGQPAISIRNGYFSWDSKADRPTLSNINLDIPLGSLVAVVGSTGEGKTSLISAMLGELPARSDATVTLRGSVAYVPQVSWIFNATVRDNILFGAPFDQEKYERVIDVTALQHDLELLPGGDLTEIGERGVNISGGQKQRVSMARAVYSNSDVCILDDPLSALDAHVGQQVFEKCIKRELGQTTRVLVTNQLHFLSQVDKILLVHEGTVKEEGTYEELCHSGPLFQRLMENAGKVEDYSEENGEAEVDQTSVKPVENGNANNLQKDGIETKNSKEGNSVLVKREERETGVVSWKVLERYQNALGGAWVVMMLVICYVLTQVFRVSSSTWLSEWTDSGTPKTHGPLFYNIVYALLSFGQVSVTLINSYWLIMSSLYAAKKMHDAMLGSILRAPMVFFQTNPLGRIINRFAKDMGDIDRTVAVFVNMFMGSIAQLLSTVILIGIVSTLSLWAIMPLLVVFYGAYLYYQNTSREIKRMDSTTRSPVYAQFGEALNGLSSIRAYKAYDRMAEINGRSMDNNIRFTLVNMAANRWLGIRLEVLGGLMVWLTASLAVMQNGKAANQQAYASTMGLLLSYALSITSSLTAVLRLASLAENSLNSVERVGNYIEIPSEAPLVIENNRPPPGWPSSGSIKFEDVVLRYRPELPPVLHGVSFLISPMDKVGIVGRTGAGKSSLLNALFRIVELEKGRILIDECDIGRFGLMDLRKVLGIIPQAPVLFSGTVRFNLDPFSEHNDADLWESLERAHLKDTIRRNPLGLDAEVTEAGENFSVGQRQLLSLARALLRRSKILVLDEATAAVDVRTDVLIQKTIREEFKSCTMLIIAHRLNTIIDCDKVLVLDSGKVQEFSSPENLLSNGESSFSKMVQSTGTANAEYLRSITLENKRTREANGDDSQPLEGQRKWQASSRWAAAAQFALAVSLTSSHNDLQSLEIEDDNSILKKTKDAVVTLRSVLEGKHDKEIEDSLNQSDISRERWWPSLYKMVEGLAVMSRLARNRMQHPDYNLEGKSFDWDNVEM
Method: S. cerevisiae strain DTY168 (MATα his6, leu2-3, -112, ura3-52 ycf1::hisG) was transformed with pYES3-AtMRP1 or empty vector lacking the AtMRP1 insert (pYES3) by the LiOAc/PEG method (Giest et al., 1991, Yeast 7:253-263) and selected for uracil prototrophy by plating on AHC medium containing tryptophan (Kim et al., 1994, supra).
For the preparation of membrane vesicles, 15 ml volumes of stationary phase cultures of the transformants were diluted into 1 L of fresh AHC medium and grown to an OD600 nm of about 1.2. Membrane vesicles were purified as described herein and in Kim et al. (1995, supra).
[…] μl reaction volumes containing 3 mM ATP, 3 mM MgSO4, 5 μM gramicidin-D, 10 mM creatine phosphate, 16 units/ml creatine kinase, 50 mM KCl, 1 mg/ml BSA, 400 mM sorbitol, 25 mM Tris-Mes ([…]).
(§6) Cells were grown and vacuolar membrane-enriched vesicles were prepared as described (Kim et al., 1995, J Biol. Chem. 270:2630-2635-). […] Uptake was terminated by the addition of 1 ml ice-cold wash medium (400 mM sorbitol/3 mM Tris-Mes, pH 8.0) and vacuum filtration of the suspension through prewetted Millipore HA cellulose nitrate filters (pore size 0.45 μm). The filters were rinsed twice with wash medium, and the retained radioactivity was determined by liquid scintillation counting. Nonenergized uptake was estimated by the same procedure except that ATP was omitted from the uptake medium.

AtMRP2 = biological target: T3, AtMRP2 (Arabidopsis thaliana, UniProt Q42093); assay: AtMRP2-dependent uptake by membrane vesicles from pYES3-AtMRP2-transformed DTY168 cells; type: biochemical
T3 construct: S. cerevisiae DTY168 (ycf1 null) vacuolar-enriched membrane vesicles
T3 sequence (Q42093 whole entry): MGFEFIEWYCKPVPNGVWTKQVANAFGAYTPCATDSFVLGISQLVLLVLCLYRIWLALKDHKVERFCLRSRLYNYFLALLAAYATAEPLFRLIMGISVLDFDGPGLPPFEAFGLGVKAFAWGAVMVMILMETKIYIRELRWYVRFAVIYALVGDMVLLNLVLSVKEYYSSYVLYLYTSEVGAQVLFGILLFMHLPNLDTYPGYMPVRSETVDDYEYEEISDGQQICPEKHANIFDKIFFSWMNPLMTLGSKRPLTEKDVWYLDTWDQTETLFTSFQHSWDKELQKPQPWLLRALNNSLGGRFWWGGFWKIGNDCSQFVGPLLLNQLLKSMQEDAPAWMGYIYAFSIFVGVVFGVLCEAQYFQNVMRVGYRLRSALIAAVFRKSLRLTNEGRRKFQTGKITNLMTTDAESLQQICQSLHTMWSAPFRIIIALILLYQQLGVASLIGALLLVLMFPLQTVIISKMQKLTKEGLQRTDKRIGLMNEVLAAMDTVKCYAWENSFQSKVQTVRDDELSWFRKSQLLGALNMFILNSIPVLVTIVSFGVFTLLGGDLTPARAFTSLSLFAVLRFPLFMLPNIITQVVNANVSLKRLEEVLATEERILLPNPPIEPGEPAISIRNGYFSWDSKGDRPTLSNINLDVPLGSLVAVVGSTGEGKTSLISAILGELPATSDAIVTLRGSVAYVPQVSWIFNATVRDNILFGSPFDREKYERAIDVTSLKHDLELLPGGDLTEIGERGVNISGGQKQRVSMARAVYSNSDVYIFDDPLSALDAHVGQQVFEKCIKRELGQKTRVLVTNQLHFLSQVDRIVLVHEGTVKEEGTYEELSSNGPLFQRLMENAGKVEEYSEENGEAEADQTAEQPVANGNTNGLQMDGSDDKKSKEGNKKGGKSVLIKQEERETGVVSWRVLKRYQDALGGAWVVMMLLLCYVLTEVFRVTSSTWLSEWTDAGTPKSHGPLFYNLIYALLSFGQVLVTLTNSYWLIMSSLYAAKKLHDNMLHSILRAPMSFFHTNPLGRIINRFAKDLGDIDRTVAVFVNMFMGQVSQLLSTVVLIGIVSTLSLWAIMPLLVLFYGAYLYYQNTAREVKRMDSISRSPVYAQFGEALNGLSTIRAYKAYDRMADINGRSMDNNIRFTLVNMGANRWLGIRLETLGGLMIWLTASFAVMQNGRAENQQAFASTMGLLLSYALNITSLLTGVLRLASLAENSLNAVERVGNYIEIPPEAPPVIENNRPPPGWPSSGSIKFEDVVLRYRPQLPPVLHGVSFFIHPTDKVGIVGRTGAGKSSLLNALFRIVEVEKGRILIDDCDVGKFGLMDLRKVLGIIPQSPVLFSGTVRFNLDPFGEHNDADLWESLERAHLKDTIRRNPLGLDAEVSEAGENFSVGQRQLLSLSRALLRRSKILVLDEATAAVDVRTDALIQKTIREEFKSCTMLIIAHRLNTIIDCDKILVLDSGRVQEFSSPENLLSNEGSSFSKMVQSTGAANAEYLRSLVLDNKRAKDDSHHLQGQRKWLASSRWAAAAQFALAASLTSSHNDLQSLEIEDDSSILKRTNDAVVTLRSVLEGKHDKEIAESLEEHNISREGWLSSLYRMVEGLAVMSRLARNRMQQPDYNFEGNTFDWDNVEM
Method: as §6
Membranes from DTY168/pYES3-AtMRP2 cells were incubated for 10 minutes in standard uptake medium containing 61.3 μM [^3 H]DNP-GS after which time 200 mM glucose and 50 units/ml hexokinase (Type F-300 from baker's yeast) were added. […] Control samples were treated identically except that no additions were made after the initial 10 minute incubation period.

[6] = gramicidin-D 5 μM, vanadate 10 μM, DNP-GS 100 μM

Molecule | DNP-GS uptake plus the compound indicated [1] [nmol/mg/10 minutes] | DNP-GS uptake as percentage of control plus the compound indicated [1] [%] | DNP-GS uptake plus the compound indicated [2] [nmol/mg/10 minutes] | DNP-GS uptake as percentage of control plus the compound indicated [2] [%] | 109Cd.GS2 uptake plus addition [3] [nmol/mg/10 minutes] | 109Cd.GS2 uptake as percentage of control [3] [%] | decrease of MgATP-dependent Cd.GS2 uptake [3] [%] | 109Cd.GS2 uptake plus addition [4] [nmol/mg/10 minutes] | 109Cd.GS2 uptake as percentage of control [4] [%] | further results
Cl.N [NH4 Cl, Ammonium chloride] | 69.1 ± 2.9 | 88.9 | 14.9 ± 0.7 | 96.8 | 89.8 ± 8.2 | 84.8 | 15 | 10.0 ± 1.7 | 57.8 | 
COc1ccc2c(c1)OC1c3ccc(O)cc3OCC21 (stereo not shown) [medicarpin] |  |  |  |  |  |  |  |  |  | uptake in the presence of MgATP ([5]; 65 μM, 3 mM MgATP): 16.7±3.6 nmol/mg/20 minutes; uptake in the absence of MgATP ([5]; 65 μM, -MgATP): 7.4±1.3 nmol/mg/20 minutes
CCc1cccc(C)c1N(C(=O)CCl)C(C)COC (stereo not shown) [metolachlor] |  |  |  |  |  |  |  |  |  | MgATP-dependent, uncoupler-insensitive uptake of unconjugated precursor detectable (AtMRP1): In no case; MgATP-dependent, uncoupler-insensitive uptake of unconjugated precursor detectable (AtMRP2): In no case
Gramicidin D | 45.8 ± 1.4 | 58.9 | 5.8 ± 0.1 | 37.7 | 77.8 ± 6.4 | 73.5 | 22 | 9.3 ± 2.0 | 56.6 | [3H]Medicarpin-GS uptake with treatment, +MgATP ([5]; 65 μM medicarpin-GS, 3 mM MgATP, gramicidin-D 5 μM, vanadate 10 μM, DNP-GS 100 μM): 71.2 ± 3.0 nmol/mg/10 minutes; [3H]Medicarpin-GS uptake with treatment, -MgATP ([5]; 65 μM medicarpin-GS, gramicidin-D 5 μM, vanadate 10 μM, DNP-GS 100 μM): 13.2 ± 2.1 nmol/mg/10 minutes; [3H]Medicarpin-GS uptake as percentage of control, +MgATP [5, 6]: 83.2%; [3H]Medicarpin-GS uptake as percentage of control, -MgATP [5, 6]: 79.0%; inhibition of MgATP-dependent [3H]medicarpin-GS uptake ([5]; vanadate 10 μM, DNP-GS 100 μM, gramicidin D): 17%
Triton X-100 |  |  |  |  |  |  |  |  |  | release (efflux) of accumulated [3H]DNP-GS after hexokinase trap (AtMRP2): more than 3 fold
